Measurements from PubChem BioAssay (NCI).
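Tested at 5 concentrations; 48 h exposure; 96-well plates; endpoints linearly interpolated, else capped at highest concentration. Abbreviation: GI50, concentration required for 50% inhibition of growth. TGI marks complete inhibition of growth.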

How the values were obtained:
Experiment in all cases: NCI-60 cell line screen, 48 h
HT29 colon = system: HT29 colon
K-562 leukemia = system: K-562 leukemia
KM12 colon = system: KM12 colon
MALME-3M melanoma = system: MALME-3M melanoma
NCI-H23 lung = system: NCI-H23 lung
OVCAR-8 ovarian = system: OVCAR-8 ovarian
RPMI-8226 leukemia = system: RPMI-8226 leukemia
SR leukemia = system: SR leukemia
SW-620 colon = system: SW-620 colon

Compound	TGI (HT29 colon)	TGI (K-562 leukemia)	TGI (KM12 colon)	TGI (MALME-3M melanoma)	TGI (NCI-H23 lung)	TGI (OVCAR-8 ovarian)	TGI (RPMI-8226 leukemia)	TGI (SR leukemia)	TGI (SW-620 colon)	GI50 (HT29 colon)	GI50 (K-562 leukemia)	GI50 (KM12 colon)	GI50 (MALME-3M melanoma)	GI50 (NCI-H23 lung)	GI50 (OVCAR-8 ovarian)	GI50 (RPMI-8226 leukemia)	GI50 (SR leukemia)	GI50 (SW-620 colon)
CCc1nc2c(O)ccc(O)c2nc1C	34.9 µM	> 20.8 µM	30.8 µM	29.3 µM	33.4 µM	23.8 µM	> 43.8 µM	> 100 µM	4.1 µM									
C[C@]12CC[C@H](O)CC1=CC[C@@H]1[C@@H]2CC[C@]2(C)C(=O)/C(=C/c3cccc(OCCCn4ccnc4)c3)C[C@@H]12	27 µM	58.1 µM	> 100 µM	59.1 µM	32.3 µM	32.8 µM	31.6 µM	40 µM	40.9 µM	7.53 µM	16 µM	34 µM	23.9 µM	15.5 µM	17.7 µM	10.1 µM	13.9 µM	19.7 µM
CCOC(C)OCC#CCCBr (centres undefined)	> 100 µM	> 100 µM	> 100 µM	> 100 µM	> 100 µM	> 100 µM	> 100 µM		> 100 µM									
O=C1CCC2(c3ccc(F)cc3)Nc3ccccc3N12 (centres undefined)	> 100 µM	> 100 µM	> 100 µM	> 100 µM	> 100 µM	> 100 µM	> 100 µM		> 100 µM									
O=[N+]([O-])c1ccccc1S(=O)c1ccccc1 (centres undefined)	> 100 µM	> 100 µM	> 100 µM	> 100 µM	> 100 µM	> 100 µM	> 100 µM	> 100 µM	> 100 µM									
N#C/C(=C\c1ccc(CP(=O)(O)O)cc1)C(N)=O	> 100 µM	> 100 µM	> 100 µM	> 100 µM	> 100 µM	> 100 µM	> 100 µM		> 100 µM									
C=C1C(=O)O[C@@H]2C[C@]3(C)[C@@H](C[C@H]12)[C@](C)(O)CC[C@@H]3O	> 100 µM	> 100 µM	> 100 µM	> 100 µM	> 100 µM	> 100 µM	> 100 µM		> 100 µM									
O=C(NO)c1ccc(C(=O)NO)cc1	> 100 µM	> 100 µM	> 100 µM	51.4 µM	> 100 µM	> 100 µM	> 100 µM	> 100 µM	> 100 µM									
O=CC1=CCCC2(C1)OCCO2	> 100 µM	> 100 µM	> 100 µM	> 100 µM	> 100 µM	> 100 µM	> 100 µM		> 100 µM									
Cc1c(/C=C2\CC/C(=C\c3[nH]c(C(=O)OC(C)(C)C)c(C)c3C)C2=O)[nH]c(C(=O)OC(C)(C)C)c1C	> 100 µM	> 100 µM	> 100 µM	> 100 µM	> 100 µM	> 100 µM	> 100 µM	> 100 µM	> 100 µM									
CC(=O)O[C@]1(C(C)=O)CC[C@H]2[C@@H]3C[C@H](C)C4=CC(=O)C=C[C@]4(C)[C@@]3(F)[C@@H](O)C[C@@]21C	> 100 µM	> 100 µM	> 100 µM	> 100 µM	> 100 µM		> 100 µM	> 100 µM	> 100 µM									
OCC(O)CC[CH2][Sn]([c]1ccccc1)([c]1ccccc1)[c]1ccccc1 (centres undefined)	33.4 µM	23.8 µM	29.8 µM		29.8 µM	31.5 µM	47.5 µM	> 100 µM	26.9 µM	19 µM	8.59 µM	13.9 µM		15.1 µM	15.7 µM	14.4 µM	49.3 µM	13.2 µM
COc1cc2c(cc1OC)C1c3ccccc3C(C#N)(C2)N(C(=O)c2ccccc2)C1O (centres undefined)	> 100 µM	> 100 µM	> 100 µM	> 100 µM	> 100 µM	> 100 µM	> 100 µM	> 100 µM	> 100 µM									
O=c1/c(=C/c2cccc3ccccc23)sc2nc3ccccc3n12	> 100 µM	> 100 µM	> 100 µM	> 100 µM	> 100 µM	> 100 µM			> 100 µM									
[Cu+2].[Cu+2].[O-]c1ccccc1C=Nc1ccccc1[O-].[O-]c1ccccc1C=Nc1ccccc1[O-]	27.4 µM	52.9 µM	27 µM	27.3 µM	4.85 µM	31.6 µM	54.6 µM		26.2 µM	6.05 µM	4.07 µM	10 µM	13.7 µM	1.96 µM	8.16 µM	3.5 µM		6.61 µM
Cc1oc2ccccc2c(=O)c1Cn1nnc2ccccc21	> 100 µM	> 100 µM	> 100 µM	> 100 µM	> 100 µM	> 100 µM	> 100 µM	> 100 µM	> 100 µM									
Cc1ccc(S(=O)(=O)N(C)C)cc1[N+](=O)[O-]	> 100 µM		> 100 µM	> 100 µM	> 100 µM	> 100 µM	> 100 µM		> 100 µM	> 100 µM		> 100 µM	> 100 µM	> 100 µM	> 100 µM	> 100 µM		> 100 µM

Compound	TGI (HT29 colon)	TGI (K-562 leukemia)	TGI (KM12 colon)	TGI (MALME-3M melanoma)	TGI (NCI-H23 lung)	TGI (OVCAR-8 ovarian)	TGI (RPMI-8226 leukemia)	TGI (SR leukemia)	TGI (SW-620 colon)	GI50 (HT29 colon)	GI50 (K-562 leukemia)	GI50 (KM12 colon)	GI50 (MALME-3M melanoma)	GI50 (NCI-H23 lung)	GI50 (OVCAR-8 ovarian)	GI50 (RPMI-8226 leukemia)	GI50 (SR leukemia)	GI50 (SW-620 colon)
Nc1nc2ncn(CCO)c2c(=O)[nH]1	> 100 µM			> 100 µM	> 100 µM	> 100 µM	> 100 µM	> 100 µM	> 100 µM									
COc1cc(OC)cc(N2CCC(c3c(N)nc(N)nc3Cl)CC2)c1		> 100 µM	> 100 µM	> 100 µM	> 100 µM	> 100 µM	> 100 µM		> 100 µM									
COc1ccc(CC(=O)c2cc(OC)c(OC)cc2C)cc1OC	> 100 µM	> 100 µM	> 100 µM	> 100 µM	> 100 µM	> 100 µM	> 100 µM		> 100 µM									
CC(C)(C)c1nc2c(o1)C(=Nc1ccccc1)c1ccccc1C2=O	57.8 µM	44.8 µM	50.3 µM	3.01 µM	5.29 µM	26.2 µM	50 µM	> 100 µM	18.4 µM									
CC(=O)[CH-]C(=O)c1ccccc1.CC(=O)[CH-]C(=O)c1ccccc1.[Nd+3].[OH-].[OH3+]	> 100 µM	> 100 µM	> 100 µM	> 100 µM	> 100 µM	> 100 µM	> 100 µM		> 100 µM	> 100 µM	> 100 µM	> 100 µM	> 100 µM	> 100 µM	> 100 µM	> 100 µM		> 100 µM
CN(C)CCC1(C2=CCCC2)CC/C(=C\c2ccc3c(c2)OCO3)C1=O (centres undefined)	25.2 µM	32 µM	31.8 µM	30.1 µM	33 µM	29 µM	73.9 µM		29.9 µM									
COc1nc(OC)c2c(=O)oc(-c3ccccc3)cc2n1	> 100 µM	> 100 µM	> 100 µM	> 100 µM	> 100 µM	> 100 µM	> 100 µM	> 100 µM	> 100 µM									
CCCCCCC1CCC2CCCC(C)N12 (centres undefined)	> 10 µM	35.3 µM	> 100 µM	> 10 µM	97.4 µM	> 100 µM	53.9 µM	58.4 µM	31.1 µM									
O=C(Cc1ccccc1)Oc1ccc2c(-c3ccccc3)c(C(=O)Nc3ccc(Cl)cc3)c(=O)oc2c1	> 100 µM	> 100 µM	> 100 µM	> 100 µM	> 100 µM	> 100 µM	> 100 µM	> 100 µM	> 100 µM									
COc1ccc(-c2cc(C(=O)Nc3cccc(C(F)(F)F)c3)[nH]c(=S)n2)cc1	> 100 µM	> 100 µM	> 100 µM	> 100 µM	> 100 µM	> 100 µM	> 100 µM	> 100 µM	> 100 µM									
CC(NC(=O)c1ccccc1)C(=O)N(Cc1ccccc1)Cc1ccccc1 (centres undefined)	> 100 µM	43.5 µM	58 µM	53.7 µM	60.4 µM		45.7 µM	64.6 µM	> 100 µM									
O=c1cc2n(c(=O)[nH]1)C1OC(C(O)C1O)[C@@H]2CCO (some centres undefined)	> 100 µM	> 100 µM	> 100 µM	> 100 µM	> 100 µM	> 100 µM		> 100 µM	> 100 µM									
COC(=O)c1cnc2nc(N3CCOCC3)[nH]n2c1=O	> 100 µM	> 100 µM	> 100 µM	> 100 µM	> 100 µM	> 100 µM	> 100 µM	> 100 µM	> 100 µM									
CS(=O)(=O)C1S(=O)(=O)OCCOS1(=O)=O	> 100 µM	> 100 µM	> 100 µM	> 100 µM	> 100 µM	> 100 µM	> 100 µM	> 100 µM	> 100 µM									
CN(C)CCNC(=O)c1ccc2ccc3cccnc3c2n1	> 100 µM	> 100 µM	95.6 µM	28.7 µM	42.2 µM	> 100 µM		30.7 µM	> 100 µM									
CCCCN(CC)C(=O)C(=O)C1C(=O)Nc2ccccc2S1=O (centres undefined)	> 100 µM	> 100 µM	> 100 µM	> 100 µM	> 100 µM	> 100 µM	> 100 µM		> 100 µM									
